The Bradley open melting point set (2014)
Several values for one entry are separate records, joined by “and”; a condition that tells them apart may be missing. Equal entries are not always repeated.

Row | Structure (SMILES) | melting point
1 | CN1C(C(=O)Nc2ccccn2)=C(O)c2ccccc2S1(=O)=O [piroxicam] | 198 °C
2 | CC(=O)O[C@@H]1[C@@H](OC(C)=O)[C@H](C)O[C@H](C#N)[C@@H]1OC(C)=O | 130 °C
3 | CCCCCCCCCCCCCCCCCC(=O)OC[C@@H](O)[C@H]1OC[C@H](O)[C@H]1O [1,4-Anhydro-6-O-stearoyl-D-glucitol] | 57 °C
4 | Nc1cc(N2CCCCC2)nc(N)[n+]1[O-] [Minoxidil] | 248 °C
5 | Clc1c(Cl)c(Cl)c(Cl)c(Cl)c1Cl [hexachlorobenzene] | 231 °C
6 | Clc1ccccc1 [chlorobenzene] | -45 °C
7 | Nc1cc(C(F)(F)F)ccc1N1CCOCC1 [2-(4-morpholinyl)-5-(trifluoromethyl)aniline] | 127 °C
8 | O=C(/C=C/c1ccc([N+](=O)[O-])cc1)c1ccccc1 [4-nitrochalcone] | 164 °C
9 | CCC1C(=O)CCC1=O [2-ethyl-1,3-cyclopentanedione] | 169 °C
10 | COc1ccc(C(=O)O)cc1[N+](=O)[O-] [4-methoxy-3-nitrobenzoic acid] | 188 °C
11 | C=CCC1([C@H](C)CCC)C(=O)NC(=O)NC1=O [Secobarbital] | 100 °C
12 | NC(=O)c1ccccc1Br [2-bromobenzamide] | 161 °C
13 | CCCc1c(O)cccc1O [2-n-propylresorcinol] | 103 °C
14 | O=C(O)CCCCC=C(c1ccccc1)c1cccnc1 [isbogrel] | 114 °C
15 | CC(=O)Nc1ccccc1C [2'-methylacetanilide] | 111 °C
16 | CF [fluoromethane] | -142 °C
17 | O=[N+]([O-])OCC(CO[N+](=O)[O-])O[N+](=O)[O-] [Nitroglycerin] | 13.5 °C
18 | CCOC(=O)c1ccc(C(C)=O)cc1 [ethyl_p-acetylbenzoate] | 55 °C
19 | Nc1ccc(C(O)(C(F)(F)F)C(F)(F)F)cc1 [2-(4-aminophenyl)-1,1,1,3,3,3-hexafluoro-2-propanol] | 150 °C
20 | CSc1nc(Cl)cc(N2CCCCC2)n1 [4-Chloro-2-(methylsulfanyl)-6-(piperidin-1-yl)pyrimidine] | 83.8 °C
21 | ClCCOc1ccccc1 [b-chlorophenetole] | 28 °C
22 | CCCCOC(=O)CCC [N-butyl butyrate] | -92 °C
23 | Cc1cc(Br)ccc1N [4-bromo-2-methylaniline] | 52 °C
24 | N#CC(c1ccccc1[N+](=O)[O-])c1ccccc1[N+](=O)[O-] [bis(2-nitrophenyl)acetonitrile] | 110 °C
25 | c1ccc(-c2ccc(-c3ccccc3)cc2)cc1 [p-terphenyl] | 213 °C
26 | Cc1cc(C)cc(B(O)O)c1 [3,5-dimethylbenzeneboronic acid] | 236 °C

Row | Structure (SMILES) | melting point
27 | Cc1ccc(C)c(C(=O)O)c1 | 134 °C
28 | C=CCO [Prop-2-en-1-ol] | -129 °C
29 | CC(C)(C)OC(=O)C(C(=O)Cc1ccccc1)c1ccccc1 (configuration not stated) [tert-butyl 3-oxo-2,4-diphenylbutanoate] | 83 °C
30 | Brc1ccc(-c2ccc(Br)cc2)cc1 [p,p'-dibromobiphenyl] | 170 °C
31 | OCCCCCCCCCCO [1,10-decanediol] | 73 °C
32 | COc1ccccc1C=O [o-anisaldehyde] | 38 °C
33 | CCC#N [Propiononitrile] | -92 °C
34 | Clc1cc(Cl)cc(Cl)c1 [1,3,5-trichlorobenzene] | 65 °C (2×) and 64 °C
35 | CCOC(=O)c1ccc(C(=O)OCC)cc1 [diethyl terephthalate] | 45 °C
36 | O=C(Nc1ccccc1)Nc1ccccc1 [1,3-Diphenylurea] | 238 °C
37 | O=[N+]([O-])c1ccc(Cc2ccccn2)c([N+](=O)[O-])c1 [2-(2,4-Dinitrobenzyl)pyridine] | 92 °C
38 | COC(CN1CCN(CC(O)C(OC)c2ccccc2)CC1)c1ccccc1 (configuration not stated) [zipeprol] | 83 °C
39 | O=C(Cl)OCc1ccccc1 [benzyl chloroformate] | -20 °C
40 | CCC(C)(C)c1ccc(O)cc1 [4-tert-pentylphenol] | 89 °C
41 | Brc1cc(Br)cc(Br)c1 [1,3,5-tribromobenzene] | 123 °C
42 | CCC#N [propionitrile] | -93 °C and -92 °C
43 | CC[C@H]1OC(=O)[C@H](C)[C@@H](O[C@H]2C[C@@](C)(OC)[C@@H](O)[C@H](C)O2)[C@H](C)[C@@H](O[C@@H]2O[C@H](C)C[C@H](N(C)C)[C@H]2O)[C@](C)(O)C[C@@H](C)C(=O)[C@H](C)[C@@H](O)[C@]1(C)O [erythromycin] | 191 °C
44 | OCc1ccccc1 [Phenylmethanol] | -15 °C
45 | CCCCCCCCOc1ccc(NC(=O)c2ccc(C)cc2)cc1 [4-methyl-N-[4-(octyloxy)phenyl]benzamide] | 141 °C
46 | C/C=C/c1ccc(O)c(OC)c1 [isoeugenol, cis trans] | -10 °C
47 | O=NN1CN2CN(C1)CN(N=O)C2 [3,7-Dinitroso-1,3,5,7-tetraazabicyclo[3.3.1]nonane] | 207 °C
48 | C=C(C)[C@@H]1CCC2=CC(=O)C[C@@H](C)[C@]2(C)C1 | 36.9 °C
49 | C/C=C/c1ccc(OC)cc1 [trans-anethole] | 22 °C
50 | Clc1ccc(Cl)nc1 [2,5-dichloropyridine] | 61 °C
51 | CC#CC [2-butyne] | -32 °C
52 | COC(=O)c1ccc2nccnc2c1 [methyl quinoxaline-6-carboxylate] | 98 °C

Row | Structure (SMILES) | melting point
53 | O=C1OC2(c3ccc(O)cc3Oc3cc(O)ccc32)c2ccccc21 [fluorescein] | 320 °C
54 | CCOc1ccc(C#N)cc1 [4-ethoxybenzonitrile] | 62 °C
55 | O=[N+]([O-])c1ccc(N2CCCCC2)cc1 [1-(4-nitrophenyl)piperidine] | 104 °C
56 | CC(=O)C(=O)O [2-Oxopropanoic acid] | 12 °C
57 | Nc1cc(N2CCCCC2)nc(N)[n+]1[O-] [minoxidil] | 248 °C
58 | CCCCC(=O)c1ccccc1 [valerophenone] | -9 °C
59 | O=C(O)COc1cccnc1 [3-pyridyloxyacetic acid] | 211 °C
60 | Cc1cn(C2CC(N=[N+]=[N-])C(CO)O2)c(=O)[nH]c1=O (configuration not stated) [zidovudine] | 106 °C
61 | CC(C)(N)CO [2-Amino-2-methylpropan-1-ol] | 30 °C
62 | CCCCOC(=O)c1ccc(O)cc1 [butylparaben] | 68.5 °C (2×) and 69 °C
63 | Nc1ccc(C(=O)O)cc1 [4-Aminobenzoic acid] | 188 °C
64 | COc1ccccc1N1CCN(CCCNc2cc(=O)n(C)c(=O)n2C)CC1 [urapidil] | 156 °C
65 | Sc1ccccc1S [1,2-benzenedithiol] | 23 °C
66 | Clc1cccc(Cl)c1N=C1NCCN1 [Clonidine] | 130 °C
67 | Cc1cc(Br)c(C)cc1Br [2,5-dibromo-p-xylene] | 73 °C
68 | Nc1ccc(O)cc1 [4-Aminophenol] | 189 °C
69 | CCCCCCCCCCCCCCCCCCN [Octadecan-1-amine] | 56 °C
70 | COC(C)(C)OC [2,2-Dimethoxypropane] | -47 °C
71 | Oc1c(F)c(F)c(O)c(F)c1F [2,3,5,6-tetrafluorohydroquinone] | 169 °C
72 | O=C(O)CCc1ccccc1 [3-phenylpropanoic_acid] | 49 °C
73 | COc1ccc(C(=O)O)cc1OC [3,4-dimethoxybenzoic acid] | 181 °C
74 | CCCCOC(=O)c1ccccc1C(=O)OCCCC [Dibutyl phthalate] | -35 °C
75 | Cc1ccc(-n2c(C)ccc2C)cc1 [OSM-S-26] | 45.5 °C
76 | CCCCN [Butan-1-amine] | -49 °C
77 | NC(Cc1ccc(N(CCCl)CCCl)cc1)C(=O)O (configuration not stated) [Melphalan] | 182 °C
78 | C[C@]12CC[C@@H]3c4ccc(O)cc4CC[C@H]3[C@@H]1C[C@@H](O)[C@@H]2O [Estriol] | 282 °C

Row | Structure (SMILES) | melting point
79 | CC(=O)Nc1ccccc1O [2-acetamidophenol] | 208 °C
80 | COCOC [Dimethoxymethane] | -105 °C
81 | COC(=O)c1ccc(OC)c(C#N)c1 [methyl 3-cyano-4-methoxybenzoate] | 122 °C
82 | Oc1ccccc1C=NCCCN=Cc1ccccc1O [N,N'-bis(salicylidene)-1,3-propanediamine] | 52 °C
83 | O=C(O)CCCc1ccccc1 [4-phenylbutyric acid] | 52 °C
84 | CC1=CCCCC1 [1-methylcyclohexene] | -120 °C
85 | CCOC(=O)C(C)=O [ethyl pyruvate] | -58 °C
86 | Cc1c[n+]([O-])ccc1[N+](=O)[O-] [4-nitro-3-picoline n-oxide] | 136 °C
87 | O=C(O)CO [Glycol acid] | 80 °C
88 | [O-]/[N+](=N\c1ccccc1)c1ccc(/N=N/c2ccccc2)cc1 [(E)-1-phenyl-2-{4-[(Z)-phenyl-NNO-azoxy]phenyl}diazene] | 131 °C
89 | COc1cc(B(O)O)cc(OC)c1OC [3,4,5-trimethoxybenzeneboronic acid] | 245 °C
90 | N#C/C(=C\c1ccc(Cl)cc1)c1nc(-c2ccccc2)cs1 | 104 °C
91 | CCCCCCCCCCCCCCc1ccccc1 [Tetradecylbenzene] | 9 °C
92 | Cc1ccc2c(c1)no[n+]2[O-] [5-methylbenzofuroxan] | 97 °C
93 | O=C(O)c1cc2ccccc2oc1=O [coumarin-3-carboxylic acid] | 192 °C
94 | COc1ccc(C(=O)c2ccc(OC)cc2OC)cc1 [2,4,4'-trimethoxybenzophenone] | 72 °C
95 | N#Cc1ccccc1O [2-cyanophenol] | 94 °C
96 | O=CN1CCOCC1 [4-formylmorpholine] | 22 °C
97 | O=C(O)Cc1ccccc1OCc1ccccc1 [2-benzyloxyphenylacetic acid] | 97 °C
98 | Cc1cc(C(F)(F)F)n2nc(N)c(/N=N/c3c(Br)cc(Br)cc3Br)c2n1 | 99 °C
99 | COC(=O)c1cc2ccccc2cn1 [methyl isoquinoline-3-carboxylate] | 86 °C
100 | O=C1c2ccccc2Cc2ccccc21 [anthrone] | 157 °C
101 | O/N=C/c1ccccc1O [salicylaldoxime] | 57 °C
102 | O=C(Cl)c1ccc(F)cc1 [4-fluorobenzoyl chloride] | 10 °C
